From US8927717B1, “Thiochromeno[2,3-c]quinolin-12-one derivatives, preparation method and application thereof” (National Defense Medical Center, priority 2014, dated 2015)

How the values were obtained:
[1] = test system: HCC-2998; type: cell-based
[2] = test system: SK-MEL-28; type: cell-based
[3] = test system: A498; type: cell-based
[4] = test system: OVCAR-4; type: cell-based
[5] = test system: IGROV1; type: cell-based
[6] = test system: 786-0; type: cell-based
[7] = test system: U251; type: cell-based
[8] = target: T1, TOP I (Topoisomerase I) (Homo sapiens, UniProt P11387); experiment: TOP I mediated supercoiled DNA relaxation assay; type: biochemical; settings: five different concentrations; TopoGEN TG2005H, TG-2000H-1
T1 construct: purchased TopoGEN TG2005H
T1 sequence (P11387 1-765): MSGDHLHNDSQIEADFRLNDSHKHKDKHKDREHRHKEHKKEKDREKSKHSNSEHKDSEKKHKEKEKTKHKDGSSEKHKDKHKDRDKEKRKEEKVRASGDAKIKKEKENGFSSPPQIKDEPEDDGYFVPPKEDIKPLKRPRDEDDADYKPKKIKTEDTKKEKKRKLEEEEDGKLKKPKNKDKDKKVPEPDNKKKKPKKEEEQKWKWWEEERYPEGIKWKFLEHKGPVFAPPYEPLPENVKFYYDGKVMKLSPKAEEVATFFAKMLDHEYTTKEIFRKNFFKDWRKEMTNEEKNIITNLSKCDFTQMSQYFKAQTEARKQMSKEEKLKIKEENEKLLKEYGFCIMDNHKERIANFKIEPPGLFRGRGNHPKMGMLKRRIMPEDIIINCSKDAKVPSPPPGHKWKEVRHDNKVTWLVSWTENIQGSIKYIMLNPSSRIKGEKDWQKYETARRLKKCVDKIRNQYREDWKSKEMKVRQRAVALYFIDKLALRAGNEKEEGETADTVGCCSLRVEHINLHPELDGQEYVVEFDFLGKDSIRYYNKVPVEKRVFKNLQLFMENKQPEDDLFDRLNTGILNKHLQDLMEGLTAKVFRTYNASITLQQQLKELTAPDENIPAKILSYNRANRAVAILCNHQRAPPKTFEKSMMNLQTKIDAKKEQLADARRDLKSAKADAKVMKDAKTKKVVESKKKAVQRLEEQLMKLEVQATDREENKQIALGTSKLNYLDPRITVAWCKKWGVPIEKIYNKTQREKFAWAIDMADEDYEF

[9] = test system: MALME-3M; type: cell-based; settings: Melanoma; 10^−5 molar; 48 hours; SRB
[10] = target: T2, TOP II (Topoisomerase II) (Homo sapiens, UniProt P11388); experiment: TOP II-catalyzed relaxation of plasmid DNA assay; type: biochemical
T2 construct: purchased TopoGEN TG-2000H-1
Procedure: We also performed TOP II-catalyzed relaxation of plasmid DNA assays (FIG. 5-7) to evaluate if compounds could inhibit TOP II. […] The IC50 value of compounds 7, N7, N8, N14, N15, N18, and N19 were about 10, 10, 1, 10, 5, 1, and 1 μM, respectively (detect by TopoGEN TG2005H, TG-2000H-1).

[11] = test system: MDA-MB-486; type: cell-based
[12] = test system: UACC-257; type: cell-based
[13] = test system: SF-268; type: cell-based
[14] = test system: OVCAR-3; type: cell-based
[15] = test system: HOP-92; type: cell-based; settings: Non-small cell lung cancer; 10^−5 molar; 48 hours; SRB
[16] = test system: HS 578T; type: cell-based
[17] = test system: NCI-H226; type: cell-based
[18] = test system: SK-MEL-2; type: cell-based
[19] = test system: CAKI-1; type: cell-based
[20] = target: T1, TOP I (Topoisomerase I); experiment: TOP I mediated supercoiled DNA relaxation assay; type: biochemical; settings: primary assay at 25 and/or 50 μM
Procedure: According to the cell cytotoxicity, compounds 5, 7, 8, 16, 19, N2, N7, N8, N9, N14-N19, and N25 were also selected for primary TOP I and II activities assays at 25 and/or 50 μM (FIG. 2-4).

[21] = test system: RPMI-8226; type: cell-based
[22] = test system: SF-295; type: cell-based
[23] = test system: SF-539; type: cell-based
[24] = Homo sapiens, HCC-2998, five dose
[25] = Homo sapiens, SK-MEL-28, five dose
[26] = Melanoma, 10^−5 molar, 48 hours, SRB
[27] = Renal cancer, 10^−5 molar, 48 hours, SRB
[28] = Ovarian cancer, 10^−5 molar, 48 hours, SRB
[29] = CNS cancer, 10^−5 molar, 48 hours, SRB
[30] = Homo sapiens, U-251, U251, five dose
[31] = Breast cancer, 10^−5 molar, 48 hours, SRB
[32] = Homo sapiens, NCI-H226, five dose
[33] = Homo sapiens, SK-Mel-2, five dose
[34] = Homo sapiens, SF-295, five dose
[35] = Homo sapiens, SF-539, five dose

T2 sequence (P11388 whole entry): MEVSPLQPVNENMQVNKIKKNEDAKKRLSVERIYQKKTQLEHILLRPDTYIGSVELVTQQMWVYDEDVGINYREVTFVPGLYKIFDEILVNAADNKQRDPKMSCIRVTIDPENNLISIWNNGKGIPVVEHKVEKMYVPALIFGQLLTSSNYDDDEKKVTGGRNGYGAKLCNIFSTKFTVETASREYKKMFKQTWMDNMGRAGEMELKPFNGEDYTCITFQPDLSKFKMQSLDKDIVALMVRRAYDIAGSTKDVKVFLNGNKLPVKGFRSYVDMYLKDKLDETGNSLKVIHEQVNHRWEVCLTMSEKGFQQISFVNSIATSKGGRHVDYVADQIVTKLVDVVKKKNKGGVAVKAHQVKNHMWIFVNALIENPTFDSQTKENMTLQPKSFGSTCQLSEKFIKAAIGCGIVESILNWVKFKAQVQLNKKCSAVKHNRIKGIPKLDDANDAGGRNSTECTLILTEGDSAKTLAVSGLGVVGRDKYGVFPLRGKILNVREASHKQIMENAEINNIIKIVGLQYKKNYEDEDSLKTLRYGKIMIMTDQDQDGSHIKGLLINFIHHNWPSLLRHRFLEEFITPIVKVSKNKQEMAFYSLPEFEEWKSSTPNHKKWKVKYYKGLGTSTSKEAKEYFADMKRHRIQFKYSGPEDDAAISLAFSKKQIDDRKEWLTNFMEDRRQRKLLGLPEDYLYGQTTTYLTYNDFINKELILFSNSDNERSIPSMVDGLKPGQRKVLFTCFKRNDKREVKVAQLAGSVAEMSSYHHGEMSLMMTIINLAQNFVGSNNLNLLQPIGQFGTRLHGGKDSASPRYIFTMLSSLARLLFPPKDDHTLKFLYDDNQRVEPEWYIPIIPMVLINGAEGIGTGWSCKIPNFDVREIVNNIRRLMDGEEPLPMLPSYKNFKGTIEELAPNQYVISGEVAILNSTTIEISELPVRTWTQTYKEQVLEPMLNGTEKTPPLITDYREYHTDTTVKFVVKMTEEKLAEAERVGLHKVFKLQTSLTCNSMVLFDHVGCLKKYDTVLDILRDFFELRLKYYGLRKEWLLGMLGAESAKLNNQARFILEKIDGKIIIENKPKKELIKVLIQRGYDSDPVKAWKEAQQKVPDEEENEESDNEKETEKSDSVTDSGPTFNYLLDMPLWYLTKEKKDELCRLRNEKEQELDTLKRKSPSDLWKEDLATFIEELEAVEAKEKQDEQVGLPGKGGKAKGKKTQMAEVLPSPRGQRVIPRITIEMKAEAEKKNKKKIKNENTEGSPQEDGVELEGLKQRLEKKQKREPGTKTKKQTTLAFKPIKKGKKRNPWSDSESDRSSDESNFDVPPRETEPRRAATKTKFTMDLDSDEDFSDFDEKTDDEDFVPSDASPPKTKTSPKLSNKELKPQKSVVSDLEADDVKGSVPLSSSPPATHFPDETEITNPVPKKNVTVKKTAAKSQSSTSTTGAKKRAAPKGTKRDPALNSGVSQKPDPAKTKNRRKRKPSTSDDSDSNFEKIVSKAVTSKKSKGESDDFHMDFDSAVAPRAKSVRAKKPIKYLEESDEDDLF

Compound: CN(C)CCNc1nc2ccccc2c2c(=O)c3cc(Cl)ccc3sc12 [Compound N7, 10-Chloro-6-((2-(dimethylamino)ethyl)amino)-12H-thiochromeno[2,3-c]quinolin-12-one]
- Growth percent HCC-2998 ([1]; Colon cancer, 10^−5 molar, 48 hours, SRB): −83.65%
- TGI ([1]; HCC-2998, five dose): 3.38 µM
- GI50 [1, 24]: 1.68 µM
- LC50 [1, 24]: 6.82 µM
- GI50 [2, 25]: 1.81 µM
- LC50 [2, 25]: 5.89 µM
- Growth percent SK-MEL-28 [2, 26]: −76.79%
- TGI ([2]; SK-MEL-28, five dose): 3.27 µM
- TGI ([3]; A498, five dose): 9.44 µM
- GI50 ([3]; Homo sapiens, A498, five dose): 2.7 µM
- CC50 ([3]; Homo sapiens, A498, five dose, read-out: LC50 (the source's name)): 3.52 µM
- Growth percent A498 [3, 27]: 43.17%
- GI50 ([4]; Homo sapiens, OVCAR-4, five dose): 1.19 µM
- CC50 ([4]; Homo sapiens, OVCAR-4, five dose, read-out: LC50 (the source's name)): 6.35 µM
- TGI ([4]; OVCAR-4, five dose): 2.75 µM
- Growth percent OVCAR-4 [4, 28]: 60.67%
- GI50 ([5]; Homo sapiens, IGROV-1, IGROV1, five dose): 1.7 µM
- CC50 ([5]; Homo sapiens, IGROV-1, IGROV1, five dose, read-out: LC50 (the source's name)): 6.58 µM
- TGI ([5]; IGROV1, five dose): 3.34 µM
- Growth percent IGROV1 [5, 28]: 33.20%
- TGI ([6]; 786-0, five dose): 3.45 µM
- GI50 ([6]; Homo sapiens, 786-0, five dose): 1.84 µM
- CC50 ([6]; Homo sapiens, 786-0, five dose, read-out: LC50 (the source's name)): 6.46 µM
- Growth percent 786-0 [6, 27]: 43.11%
- Growth percent U251 [7, 29]: −39.75%
- GI50 [7, 30]: 1.48 µM
- LC50 [7, 30]: 5.44 µM
- TGI ([7]; U251, five dose): 2.84 µM
- IC50 [8]: ~10 µM
- Growth percent MALME-3M [9]: −4.32%
- IC50 ([10]; five different concentrations, TopoGEN TG2005H, TG-2000H-1, read-out: IC50 value, TOP II mediated supercoiled DNA relaxation): ~10 µM
- inhibitory effect in TOP II relaxation assay compared with VP-16 ([10]; primary assay at 25 and/or 50 μM): more potent inhibitory effects than the positive agent VP-16
- GI50 ([11]; 60 cell, MDA-MB-486, five dose): 1.47 µM
- CC50 ([11]; 60 cell, MDA-MB-486, five dose, read-out: LC50 (the source's name)): 7.34 µM
- Growth percent MDA-MB-486 [11, 31]: 12.81%
- TGI ([11]; MDA-MB-486, five dose): 3.28 µM
- GI50 ([12]; Homo sapiens, UACC-257, five dose): 1.74 µM
- CC50 ([12]; Homo sapiens, UACC-257, five dose, read-out: LC50 (the source's name)): 5.93 µM
- Growth percent UACC-257 [12, 26]: −48.22%
- TGI ([12]; UACC-257, five dose): 3.21 µM
- Growth percent SF-268 [13, 29]: 39.05%
- GI50 ([13]; Homo sapiens, SF-268, five dose): 1.57 µM
- CC50 ([13]; Homo sapiens, SF-268, five dose, read-out: LC50 (the source's name)): 6.35 µM
- TGI ([13]; SF-268, five dose): 3.16 µM
- GI50 ([14]; Homo sapiens, OVCAR-3, five dose): 1.61 µM
- CC50 ([14]; Homo sapiens, OVCAR-3, five dose, read-out: LC50 (the source's name)): 5.58 µM
- TGI ([14]; OVCAR-3, five dose): 3.00 µM
- Growth percent OVCAR-3 [14, 28]: 19.74%
- Growth percent HOP-92 [15]: −10.12%
- Growth percent HS 578T [16, 31]: 34.31%
- TGI ([16]; HS 578T, five dose): 4.02 µM
- GI50 ([16]; Homo sapiens, HS 578T, five dose): 1.74 µM
- CC50 ([16]; Homo sapiens, HS 578T, five dose, read-out: LC50 (the source's name)): 9.27 µM
- GI50 [17, 32]: 1.84 µM
- LC50 (concentration giving 50% net cell kill) [17, 32]: 24.3 µM
- TGI ([17]; NCI-H226, five dose): 4.38 µM
- Growth percent NCI-H226 ([17]; Non-small cell lung cancer, 10^−5 molar, 48 hours, SRB): 58.08%
- GI50 [18, 33]: 1.8 µM
- LC50 [18, 33]: 6.12 µM
- Growth percent SK-MEL-2 [18, 26]: −7.83%
- TGI ([18]; SK-Mel-2, five dose): 3.32 µM
- TGI ([19]; CAKI-1, five dose): 2.80 µM
- GI50 ([19]; Homo sapiens, CAKI-1, five dose): 1.43 µM
- CC50 ([19]; Homo sapiens, CAKI-1, five dose, read-out: LC50 (the source's name)): 5.49 µM
- Growth percent CAKI-1 [19, 27]: 34.60%
- inhibitory effect in TOP I activity assay compared with CPT [20]: more potent inhibitory effects than CPT
- GI50 ([21]; Homo sapiens, RPMI-8226, five dose): 1.76 µM
- CC50 ([21]; Homo sapiens, RPMI-8226, five dose, read-out: LC50 (the source's name)): 7.69 µM
- Growth percent RPMI-8226 ([21]; Leukemia, 10^−5 molar, 48 hours, SRB): −37.68%
- TGI ([21]; RPMI-8226, five dose): 3.68 µM
- Growth percent SF-295 [22, 29]: −32.59%
- GI50 [22, 34]: 1.73 µM
- LC50 [22, 34]: 5.98 µM
- TGI ([22]; SF-295, five dose): 3.21 µM
- Growth percent SF-539 [23, 29]: 48.73%
- GI50 [23, 35]: 1.68 µM
- LC50 [23, 35]: 5.67 µM
- TGI ([23]; SF-539, five dose): 3.08 µM
